US20260223837A1, “NATURAL LIPID PARTICLE FORMULATIONS FOR AGRICULTURAL APPLICATIONS” (INVAIO SCIENCES, INC., priority 2023, published 2026)

Assays:
Tomato Horn Worm (THW) = assay: Tomato seedling root uptake assay followed by THW infestation; details: in vivo
Procedure: Tomato seeds (N=14) were germinated and grown on a precut mesh (0.08″×0.025″ Opening; Mcmaster-Carr, Cat #1100T45) in 20 ml 0.5×MS media ([…] filtered without sucrose added) in a deep petri dish (100 mm×25 mm). The petri dishes were placed in a plastic container (236 Oz) with holes on both sides of the container and 100 ml MilliQ water to maintain high humidity. The plastic containers with plants were placed in a Percival incubator (25° C., 50% relative humidity).
After 10 days, the mesh along with the seedlings on it was moved from the petri dish containing 0.5×MS media and excess media on mesh was dried by damping the roots on paper towels. The seedlings on the mesh were placed in a new deep petri dish containing formulation solution (20 ml) in the same large plastic container and Percival incubator. […] After 3 days, the mesh with seedlings was taken out of petri dish and the roots were washed with MilliQ water 2 times and placed on a paper towel to blot off excess water. […]
Five THW larvae were placed on the tomato seedlings on mesh in each petri dish and the petri dish was placed in a large plastic container (101 Oz). The insect mortality was scored after 2 days, and the mortality was normalized against negative control (water treatment) to calculate the % larval control.

fall army worms (FAW) = assay: Corn seedling root application, fall army worm infestation; format: in vivo; details: for plant mass / fresh weight: in vivo; for FAW mortality: two days post-infestation
Procedure: Two hundred corn seeds of the MBS Hybrid line are sterilized in 15% bleach sterilization solution by placing 50 seeds each in 4 separate 50 mL Falcon tubes and adding 25 mL sterilization solution into each tube. The tubes containing seeds are shaken on an orbital shaker at low speed for 15 min, after which the seeds are rinsed 3 times with sterile MilliQ water in the biological safety cabinet to ensure sterility. Six seeds are then selected from each tube and placed into CYG germination pouches (PhytoAB ca #CYG-38 LB) with 50 ml of sterile DI water. Seeds are allowed to germinate in the dark for 3 days at 25° C. and 60% relative humidity. After 3 days seedlings are moved to climate-controlled chambers with a light: dark cycle of 16:8 at 25° C. and 60% RH. At this time 25 ml of treatment solutions suspended in Hoagland's solution (Sigma-Alderich H2395-1L, 1.3 g/L, pH 6.5) are added to germination pouches. […] Seedlings are allowed to grow and uptake solution for 3 days before FAW infestation.
Six-day-old plants are infested with non-diapausing FAW at a rate of two 2nd instar larvae per plant. […] Before infestation germination pouches are sealed to prevent FAW from making direct contact with nutrient and NLP solutions. FAW are then allowed to feed on plants for a duration of 2 days in a Percival incubator (25° C., 50% RH, 16:8 Light: dark cycle).
FAW mortality is scored two days post-infestation by removing larvae from plants and probing 3 times. Larvae that are unresponsive to probing or not recovered are considered dead and the proportion of surviving larvae over initial infestation numbers are compared across treatments. Plant mass is also recorded by weighing individual seedlings after larvae are removed and average mass of seedlings are compared across treatments.

[1] = UV stability assay of deltamethrin in NLPs; format: physicochemical
Text: In addition, the four NLP formulations were also mixed with lignosulfonate (Borresperse NA, Borregaard), a widely used UV absorption agent at 3% final concentration, ten samples were exposed to UV light, and ten represented control samples that were not exposed to UV light.
For the samples to be exposed to UV exposure, the cap of the Eppendorf tube was removed, and a single layer of Saran wrap (SC Johnson) was pulled across the top and secured with a rubber band. For the control samples, the Eppendorf tube was capped and wrapped entirely in aluminum foil to completely block UV radiation.
All samples were placed 15 cm below the UV light (Hortilux PowerVEG Full Spectrum with UV Bulb, Growershouse, Cat #901678) with the UV radiation intensity at round 150 milliwatts per square centimeter (mW/cm^2). For each treatment, two samples were analyzed by LC-MS at t=0 (immediately after preparation), at day 1, day 2, day 3, and day 6. For each timepoint two UV samples and 2 control samples were removed for analysis by LC-MS/MS. Prior to analysis, the samples were diluted to 1 ml with methanol in the original 2 mL Eppendorf tubes. A further 100× dilution was performed in methanol and the samples were transferred to HPLC vials for analysis by LC-MS.

WCRW [2] = assay: Small scale (green house 10 inch pot) in-furrow assay and dose-response; format: in vivo, western corn rootworm (WCRW); details: 2 mg/ml DE, in-furrow 3 ml, day 28
Procedure: Jumbo cotton balls were packed into the bottom of 10″ tall and 2.7″ diameter cylindrical containers. Wide straws were inserted for later use during the infestation process, then packed with ~660 g of silt loam soil. Soil was then watered with about 150 ml of water in three 50 ml increments 24 hrs before planting. A hole was made at a depth of 1.5 inch from the top of the soil. […] The particle size, PDI and zeta potential of these NLPs are similar to those prepared with 80 ug/ml of DE in the suspension (Table 8). The treatments were added around the edge of the hole for planting. A seed was then planted in the hole and covered with soil. Containers with seeds were then placed in the greenhouse to continue growing for 7 days until ready for infestation.
2nd instar WCRW larvae were shipped from the supplier (Crop Characteristic Inc., Farmington, MN USA) and stored at 10° C. until ready for use (less than a week). The 1st and 2nd infestations were conducted 7 and 14 days after seed planting, respectively. For each infestation, approximately 10 larvae were transferred to 0.5 ml microcentrifuge tube and released into soil via dropping the tube with the open mouth facing down into straws inserted when the pots were filled with soil. […]
The fresh weight for each whole seedling was measured using a scale and recorded.

WCRW [3] = assay: Field-scale in-furrow treatment, open field trial (Example 53); format: in vivo, western corn rootworm (WCRW); details: 2 mg/ml
[4] = tested on: Colorado Potato Beetle (CPB); assay: Tomato seedling root uptake assay followed by CPB infestation; details: 160 ug/ml in DCM
Fusarium oxysporum = assay: Resazurin based Fusarium inhibition assay; format: cell-based; details: 24 hr incubation, compared to negative controls (DMSO)
Procedure: The purpose of this assay was to quantify the effect of encapsulation of AZO, an antifungal agent, in NLP particles on its efficacy against a fungal pathogen (e.g., Fusarium oxysporum). Encapsulated AZO was compared to unencapsulated counterparts to determine if there is any change in efficacy. Formulations were tested in a 96-well plate and incubated with F. oxysporum conidia (spores) for 24 hr, after which resazurin dye was added. After 4 hr of incubation the color change of resazurin from blue to a fluorescent pink due to fungal respiration was assessed spectrophotometrically and the percent inhibition of respiration, as a measure of fungal growth, was determined by comparison to a conidia-only negative control. […] Fusarium oxysporum was cultured on 50% potato dextrose broth (PDB) agar plates. Using a pipette tip, a small mycelium aliquot was transferred to a 50-mL flask containing carboyxymethyl cellulose medium (CMC). […] Conidia were counted in the resuspended pellet using a hemocytometer, and diluted to 1×10^6 conidia/mL in 20% glycerol solution, from which a 1×10^5 conidia/mL working solution was prepared. […] After 24 h, 10 μL of PrestoBlue reagent was added to each well of the plate, followed by 4 h incubation, after which the fluorescence was read at 570/620 nm with a read height of 7 mm.

tomato hornworm (THW) = assay: Tomato seed priming, tomato hornworm infestation; format: in vivo; details: seed priming 24 hr
Procedure: Tomato seeds are surface-sterilized by 1 ml 25% Bleach with 0.025% Triton X-100 in 1.5 ml centrifuge tube, then washed 3 times with 1 ml sterile water. Tomato seeds (N=50) are primed in 0.3 ml of below treatment solutions in a 1.5 ml centrifuge tube for 24 hr.
The primed tomato seeds (N=14) are germinated and grown on a precut mesh (0.08″×0.025″ Opening; Mcmaster-Carr) in 20 ml half strength Murashige and Skoog Basal Medium (MP Bio, Cat #0926231—CF) in a deep petri dish (100 mm×25 mm). The petri dishes are placed in large plastic container (236 Oz) with holes on both sides of the container and 100 ml MilliQ water to maintain high humidity. The containers are placed in a Percival incubator (about 25° C., 50% relative humidity). After 10 days, the mesh along with the seedlings on it is moved from the petri dish containing half strength MS media and excess media on mesh is dried by damping the roots on paper towels. After 3 days, the mesh with seedlings is removed from the petri dish and the roots are washed twice with MilliQ water and placed on paper towel to blot off excess water. The mesh with tomato seedlings is transferred to a new petri dish with 25 ml of 1% Phytagel (P8169-1 KG, Sigma-Aldrich). […]
The insect mortality is scored after 2 days, and the mortality is normalized against negative control (water treatment) to calculate the % larval control.

whiteflies = assay: Tomato seedling root treatment, whitefly exposure; format: in vivo; details: after 7 days
Procedure: Tomato seeds (N=14) are germinated and grown on a precut mesh (0.08″×0.025″ Opening; Mcmaster-Carr, Cat #1100T45) in 20 ml ½ MS media ([…] filtered without sucrose added) in a deep petri dish (100 mm×25 mm). The petri dishes are placed in a large plastic container (Sistema; 236 Oz) with holes on both sides of the container and 100 ml MilliQ water to maintain high humidity. Large plastic containers are placed in a Percival incubator (25° C., 50% RH). After 10 days, the mesh along with the seedlings on it is moved from the petri dish containing half strength MS media, and excess media on mesh is dried by blotting the roots on paper towels. […] After 3 days, the mesh with seedlings is taken out of petri dish and the roots are washed with MilliQ water 2 times and placed on a paper towel to blot off excess water. The mesh with tomato seedlings is transferred to a new petri dish with 25 ml of 1% phytogel (P8169-1 KG, Sigma-Aldrich).
From a whitefly infested plant in a rearing cage, leaves that are infested with about 200 white flies are excised using scissors and placed in a petri dish. The petri dish is placed at the base of the tomato plants on the phytagel taking care to not damage the tomato plant roots. The boxes with the tomato plant and the whiteflies are placed in an incubator with 16 h light/8 hr dark photoperiod, 26° C. and 50% humidity. […]

SMILES	phytotoxicity (Tomato Horn Worm (THW))	plant mass / fresh weight (fall army worms (FAW))	FAW mortality (fall army worms (FAW))	Repeat 1 (deltamethrin concentration) ([1]; Repeat 1, initial concentration, LC-MS) [µg/mL]	Repeat 2 (deltamethrin concentration) ([1]; Repeat 2, initial concentration, LC-MS) [µg/mL]	deltamethrin retention rate (actual deltamethrin/input deltamethrin) ([1]; after 6 days of UV exposure (figure legend)) [%]	Initial deltamethrin Concentration ([1]; mean of Repeat 1 and 2, LC-MS at t=0, before UV exposure) [µg/mL]	protection of whole plant mass and root mass from WCRW (WCRW [2])	root injury rating (0 to 3) (WCRW [3])	phytotoxicity to tomato seedlings [4]	minimum amount required for >90% inhibition of Fusarium (Fusarium oxysporum) [µg/mL]	insect mortality and stunting (tomato hornworm (THW))	number of live whiteflies (whiteflies)
CC1(C)[C@H](C(=O)O[C@H](C#N)c2cccc(Oc3ccccc3)c2)[C@@H]1C=C(Br)Br [Deltamethrin]	phytotoxicity (wilting and chlorosis of plant tissue)	fresh weight comparable to the water treated plants	none or very low mortality	104	114	15	109	less effective in protecting whole plant mass	higher root damage than the NLP644 comprising deltamethrin at 2 mg/ml treatment	caused phytotoxicity to the tomato seedlings	–	–	–
CO/C=C(/C(=O)OC)c1ccccc1Oc1cc(Oc2ccccc2C#N)ncn1 [azoxystrobin]	–	–	–	–	–	–	–	–	–	–	5	–	–
CN/C(=N\[N+](=O)[O-])NCc1cnc(Cl)s1 [clothianidin]	–	plant mass is the highest	FAW mortality is the highest	–	–	–	–	–	–	–	–	significantly higher mortality and stunting	significantly lower
